Molecules are shown by their SMILES.

In this assay the target is Rhodopsin (Bos taurus) (UniProt P02699). The experiment in a line: Agonist activity at bovine rhodopsin assessed as opsin mediated cognate G protein transducer activation by fluorescence assay. The assay is classed as functional. Set-up: concentration or dose not given beside the values.
Rhodopsin (Bos taurus), sequence (P02699 whole entry): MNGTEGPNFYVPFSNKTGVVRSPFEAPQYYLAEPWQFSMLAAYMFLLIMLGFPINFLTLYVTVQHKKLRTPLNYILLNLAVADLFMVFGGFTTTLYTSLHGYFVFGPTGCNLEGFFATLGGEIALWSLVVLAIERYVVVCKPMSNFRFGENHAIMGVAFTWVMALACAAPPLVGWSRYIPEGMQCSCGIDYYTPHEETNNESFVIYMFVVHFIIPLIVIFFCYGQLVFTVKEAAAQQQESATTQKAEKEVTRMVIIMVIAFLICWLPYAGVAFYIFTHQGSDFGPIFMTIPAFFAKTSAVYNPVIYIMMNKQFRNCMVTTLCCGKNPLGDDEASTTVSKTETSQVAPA
Turning to `CC1=C(/C=C/C(C)=C\C=C\C(=C\C=O)C(C)C)C(C)(C)CCC1`, the Activity came out at 139%. The value for `CC1=C(/C=C/C(C)=C\C=C\C(C)=C\C=O)C(C)(C)CCC1` was 104%; that for `CC1=C(/C=C/C(=C/C=C\C(C)=C\C=O)C2CC2)C(C)(C)CCC1` was 83%; that for `CC1=C(/C=C/C(C)=C\C=C\C(=C\C=O)C2CC2)C(C)(C)CCC1` was 53%. The value for `CC1=C(/C=C/C(C)=C/C=C\C(C)=C\C=O)C(C)(C)CCC1` was 100%. In the case of `CC1=C(/C=C/C(=C\C=C\C(C)=C\C=O)C2CC2)C(C)(C)CCC1` it was 60%.
